According to patent US20050171116A1, “Enhancing the efficacy of tubercular drugs” (priority 2004, published 2005):

What was measured:
AFB = assay: Sputum AFB test (Ziehl-Neelson stain) in pulmonary tuberculosis patients; type: in vivo, human
Procedure: Fifty four patients suffering from pulmonary tuberculosis were included in this study. Thirty patients were treated with four anti-tubercular drugs only. Twenty-four patients were treated with four anti-tubercular drugs and antioxidant drugs concomitantly.
Four antitubercular drugs were given by oral route to all 54 patients in doses and frequency as shown below for a period of 60 days. The dosage regime for the anti-microbial drugs is known in the art as “2EHRZ.” It is an oral daily capsule of rifampicin, a tablet of isoniazid, a tablet of Pyrizinamide, and a tablet of ethambutal.
Out of the total test population of fifty-four patients, twenty-four patients received, in addition to the above 2EHRZ regime, Factor Alpha tx for 60 days, administered daily, orally.
In both of the two groups, three sputum samples for each patient were collected and were analyzed for the presence of AFB after 15 days, after 30 days and after sixty days. Analysis was by the Ziehl-Neelson (hot) stain method. The reports were documented as positive for presence of bacilli & negative for absence of bacilli.
The first group (the control group) received Rifampicin, Isoniazid, Ethambutol and Pyrazinamide in daily oral doses mentioned above, on Out Patient Department (OPD) basis for 60 days. […]

[1] = tested on: sensitive strains of Mycobacterium Tuberculosis bacilli (MTB); assay: Antibacterial efficacy in LJ medium, in vitro culture; type: cell-based
Pseudomonas = assay: Antibacterial activity in broth, culture growth after 24 hrs; type: cell-based
Staphylococci = assay: as above; type: cell-based
Escherichia coli = assay: as above; type: cell-based

Cc1c(C)c2c(c(C)c1O)CC[C@@](C)(CCC[C@H](C)CCC[C@H](C)CCCC(C)C)O2 [Factor Alpha tx, α-tocopherol]
effect on sputum negativity of concurrent administration with routine anti tubercular agents (AFB): synergistic effects in augmenting sputum negativity | antibacterial efficacy [1]: effective | antibacterial activity (Pseudomonas): has antibacterial activity | antibacterial activity (Staphylococci): has antibacterial activity | antibacterial activity (Escherichia coli): has antibacterial activity
